# According to ChEMBL document CHEMBL1201862, “PubChem BioAssay data set” (2004):
#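 Following 48 hours of exposure in 96-well plates, responses at five concentrations were used to interpolate endpoints linearly. GI50 is the concentration that inhibits growth by half.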 Active and inactive are the calls of the source. Cut-off read from the data, not from the text of the source: active = GI50 up to about 1.1 µM and inactive = higher.
# Legend:
# Test in all cases: DTP human tumour cell line panel, 48 h
# A498 = tested on: A498
# BT-549 = tested on: BT-549
# CAKI-1 = tested on: CAKI-1
# CCRF-CEM = tested on: CCRF-CEM
# COLO 205 = tested on: COLO 205
# EKVX = tested on: EKVX
# HCT-116 = tested on: HCT-116
# LOX IMVI = tested on: LOX IMVI
# MDA-MB-435 = tested on: MDA-MB-435
# Malme-3M = tested on: Malme-3M
# NCI-H522 = tested on: NCI-H522
# NCI/ADR-RES = tested on: NCI/ADR-RES
# SK-OV-3 = tested on: SK-OV-3
# SN12C = tested on: SN12C
# SNB-19 = tested on: SNB-19
# SR = tested on: SR
# SW-620 = tested on: SW-620
# U-251 = tested on: U-251
# UACC-257 = tested on: UACC-257
Structure (SMILES),GI50 (A498),GI50 (BT-549),GI50 (CAKI-1),GI50 (CCRF-CEM),GI50 (COLO 205),GI50 (EKVX),GI50 (HCT-116),GI50 (LOX IMVI),GI50 (MDA-MB-435),GI50 (Malme-3M),GI50 (NCI-H522),GI50 (NCI/ADR-RES),GI50 (SK-OV-3),GI50 (SN12C),GI50 (SNB-19),GI50 (SR),GI50 (SW-620),GI50 (U-251),GI50 (UACC-257)
O=C(O)COc1cc(-c2ccccc2)nc2ccc(F)cc12,> 100 µM (inactive),> 100 µM (inactive),> 100 µM (inactive),> 100 µM (inactive),> 100 µM (inactive),> 100 µM (inactive),> 100 µM (inactive),> 100 µM (inactive),> 100 µM (inactive),> 100 µM (inactive),58.1 µM (inactive),> 100 µM (inactive),> 100 µM (inactive),> 100 µM (inactive),> 100 µM (inactive),> 100 µM (inactive),> 100 µM (inactive),> 100 µM (inactive),> 100 µM (inactive)
CCOP(=O)(OCC)/C(F)=C/c1ccccc1,> 100 µM (inactive),> 100 µM (inactive),> 100 µM (inactive),> 100 µM (inactive),> 100 µM (inactive),> 100 µM (inactive),> 100 µM (inactive),> 100 µM (inactive),> 100 µM (inactive),> 100 µM (inactive),> 100 µM (inactive),> 100 µM (inactive),> 100 µM (inactive),> 100 µM (inactive),> 100 µM (inactive),> 100 µM (inactive),> 100 µM (inactive),> 100 µM (inactive),> 100 µM (inactive)
c1ccc(CSc2nnc3c4ccccc4c4ccccc4c3n2)cc1,> 64.1 µM (inactive),50 µM (inactive),78.9 µM (inactive),27.7 µM (inactive),> 100 µM (inactive),27.2 µM (inactive),> 82.4 µM (inactive),62.7 µM (inactive),58.1 µM (inactive),86.1 µM (inactive),33.2 µM (inactive),60.5 µM (inactive),17.7 µM (inactive),> 93.8 µM (inactive),33.2 µM (inactive),30.2 µM (inactive),38.2 µM (inactive),33.3 µM (inactive),> 100 µM (inactive)
N#Cc1c(C#N)c(-c2cccc([N+](=O)[O-])c2)n(-c2ccccc2)c1N,17.8 µM (inactive),5.11 µM (inactive),44.4 µM (inactive),> 100 µM (inactive),> 100 µM (inactive),> 100 µM (inactive),> 100 µM (inactive),> 100 µM (inactive),> 100 µM (inactive),> 100 µM (inactive),> 100 µM (inactive),> 100 µM (inactive),96.2 µM (inactive),> 100 µM (inactive),46.8 µM (inactive),> 100 µM (inactive),> 100 µM (inactive),44.8 µM (inactive),> 100 µM (inactive)
COc1ccc(Cc2ccccc2C(=O)O)c2ccccc12,22.8 µM (inactive),39.2 µM (inactive),35.3 µM (inactive),26.1 µM (inactive),17.9 µM (inactive),26.4 µM (inactive),20.7 µM (inactive),23.2 µM (inactive),22 µM (inactive),21.8 µM (inactive),20.3 µM (inactive),32.5 µM (inactive),40.6 µM (inactive),29.2 µM (inactive),37.3 µM (inactive),31.5 µM (inactive),31.6 µM (inactive),25.7 µM (inactive),24.7 µM (inactive)
CC(=O)O[C@H]1C[C@H]2[C@@H]([C@H](OC(C)=O)C[C@@H]3CC4(CC[C@@]32C)OOC2(CCCCC2)OO4)[C@@H]2CC[C@H]([C@H](C)CCC(N)=O)[C@@]12C,6.64 µM (inactive),2.07 µM (inactive),0.63 µM (active),1.28 µM (inactive),1.91 µM (inactive),1.49 µM (inactive),3.13 µM (inactive),1 µM (active),1.65 µM (inactive),2.76 µM (inactive),0.55 µM (active),2.2 µM (inactive),11.6 µM (inactive),2.14 µM (inactive),5.85 µM (inactive),0.0787 µM (active),2.42 µM (inactive),1.51 µM (inactive),5.62 µM (inactive)
CCOC(=O)N1CCN(c2ccc3c(C)cc(C)nc3n2)CC1,> 100 µM (inactive),> 100 µM (inactive),> 100 µM (inactive),> 100 µM (inactive),> 100 µM (inactive),> 100 µM (inactive),> 100 µM (inactive),> 100 µM (inactive),> 100 µM (inactive),> 100 µM (inactive),> 100 µM (inactive),> 100 µM (inactive),> 100 µM (inactive),> 100 µM (inactive),> 100 µM (inactive),> 100 µM (inactive),> 100 µM (inactive),> 100 µM (inactive),> 100 µM (inactive)
CCN1CCN(c2nc3ccc([N+](=O)[O-])cc3nc2C(=O)c2ccccc2)CC1,30.4 µM (inactive),5.64 µM (inactive),16.7 µM (inactive),2.12 µM (inactive),16.2 µM (inactive),16.1 µM (inactive),17.1 µM (inactive),4.98 µM (inactive),16.3 µM (inactive),13.1 µM (inactive),2.67 µM (inactive),14.8 µM (inactive),14.8 µM (inactive),16.3 µM (inactive),26 µM (inactive),2.47 µM (inactive),21 µM (inactive),17.3 µM (inactive),20.1 µM (inactive)
Cc1nc(-c2ccc(Cl)cc2)cn2c1nc1ccccc12,> 100 µM (inactive),> 93.5 µM (inactive),> 100 µM (inactive),23.5 µM (inactive),> 43.3 µM (inactive),> 100 µM (inactive),> 100 µM (inactive),> 100 µM (inactive),> 100 µM (inactive),> 100 µM (inactive),> 100 µM (inactive),> 86.3 µM (inactive),> 100 µM (inactive),> 100 µM (inactive),> 100 µM (inactive),90.6 µM (inactive),> 100 µM (inactive),> 100 µM (inactive),> 100 µM (inactive)
COc1cc(C2c3cc4c(cc3OC(N3CCOCC3)C2C)OCO4)cc(OC)c1O (stereo not given),15.1 µM (inactive),7.43 µM (inactive),11.5 µM (inactive),3.14 µM (inactive),15.6 µM (inactive),36.2 µM (inactive),4.13 µM (inactive),6.7 µM (inactive),2.1 µM (inactive),3.29 µM (inactive),2.8 µM (inactive),3.35 µM (inactive),5.69 µM (inactive),13.7 µM (inactive),22.3 µM (inactive),3.82 µM (inactive),3.84 µM (inactive),7.52 µM (inactive),17.8 µM (inactive)
